{"source": "patent US20220031840A1", "about": "“Method of Treatment” (HaemaLogix Pty Ltd, priority 2018, published 2022)", "origin": "cited, not measured here", "system": "CXCL10", "conditions": "elotuzumab phase I study; cited from earlier work"}
{"substance": "elotuzumab: antibody named as additional anti-cancer agent; phase I study cited (Zonder et al. 2012)", "values": [{"measurement": "Drug-induced change in CXCL10 levels", "result": "drug-induced increases"}]}
